Measurements from patent US12605383B2, “Methods of treating cancer” (priority 2020, dated 2026).

Legend:
KRASG12C PDX models = settings: Janes et al. 2018; cited from earlier work
LLC cells = experiment: Cell viability (CCK8) assay, LLC cells; assay type: cell-based, murine; settings: LLC (KRASG12C mutant), 0.016 up to 7500 nM, 48 h
LLC s.c. tumor = experiment: Subcutaneous LLC tumor model, tumor size and survival; assay type: in vivo, B6 mice
[1] = system: LLC tumor microenvironment; experiment: Flow cytometry of immune cells in LLC tumor tissues; assay type: in vivo, B6 mice; settings: days 6 and 11
AE17 s.c. tumor = experiment: Subcutaneous AE17 tumor model, tumor size and survival; assay type: in vivo, B6 mice
[2] = system: viral replication of vvTD and vvTD-IL36γ; assay type: cell-based, vaccinia virus
H2122 cells = experiment: Cell viability (CCK8) assay, H2122 cells; assay type: cell-based, human; settings: H2122 (KRASG12C mutant), 0.016 up to 7500 nM, 48 h
[3] = system: LLC tumor-specific T cells; experiment: IFN-γ ELISpot assay of TILs from LLC tumors; assay type: in vivo, B6 mice; settings: 2.0×10^4 CD90.2+ TILs, day 7, co-cultured 1:1 with irradiated LLC cells
MC38 s.c. tumor = experiment: Subcutaneous MC38 tumor model, tumor size and survival; settings: for Median survival: MC38 s.c. tumor, FIG. 2F
AE17 cells = experiment: Cell viability (CCK8) assay, AE17 cells; assay type: cell-based, murine; settings: AE17 (KRASG12C mutant), 0.016 up to 7500 nM, 48 h

For `C=CC(=O)N1CCN(c2ncnc3c(F)c(-c4c(O)cccc4F)c(Cl)cc23)CC1` [ARS-1620], the “in vivo antitumor effect” value (KRASG12C PDX models) is listed as “tumor regression”.

In the case of `C=CC(=O)N1CCN(c2nc(OC[C@@H]3CCCN3C)nc3c2CCN(c2cccc4cccc(C)c24)C3)C[C@@H]1CC#N` [MRTX1257], the “sensitivity of cancer cells to MRTX1257” value (LLC cells) was “highly sensitive”, the “antitumor effect (tumor size)” value (LLC s.c. tumor; LLC model, MRTX1257 60 mg/kg oral, OVs 2.0e6 pfu/mouse intratumoral, FIG. 3A) was “significant antitumor effect” and the “Median survival” value (LLC s.c. tumor; LLC s.c. tumor, MRTX1257 60 mg/kg, FIG. 2D) was 36 days. The “Median survival” value (LLC s.c. tumor; LLC s.c. tumor, MRTX1257 100 mg/kg, FIG. 2D) was 39.5 days, the “Median survival” value (LLC s.c. tumor; LLC s.c. tumor, MRTX1257 200 mg/kg, FIG. 2D) was 45 days and the “inhibition of tumor growth” value (LLC s.c. tumor; LLC tumor model, 60-200 mg/kg, FIG. 2A) was “good efficacy”. The “Median survival” value (LLC s.c. tumor; LLC tumor, OV i.t. single dose, MRTX1257 60 mg/kg oral daily for 3 weeks, FIG. 3B) was 39 days, the “Median survival” value (LLC s.c. tumor; LLC tumor, combination with PD-1 blockade, FIG. 6E) was 39 days and the “CD8+ T cells in tumor tissue” value [1] was “no reduction”. For the same compound, the “Median survival” value (AE17 s.c. tumor; AE17 s.c. tumor, MRTX1257 60 mg/kg, FIG. 2E) was 40.5 days, the “Median survival” value (AE17 s.c. tumor; AE17 s.c. tumor, MRTX1257 100 mg/kg, FIG. 2E) was 40 days and the “Median survival” value (AE17 s.c. tumor; AE17 s.c. tumor, MRTX1257 200 mg/kg, FIG. 2E) was 47 days. For the same compound, the “inhibition of tumor growth” value (AE17 s.c. tumor; AE17 tumor model, 60-200 mg/kg, FIG. 2B) was “good efficacy”, the “Median survival” value (AE17 s.c. tumor; AE17 tumor, OV i.t. single dose, MRTX1257 60 mg/kg oral daily for 3 weeks, FIG. 3) was 49.5 days and the “effect on viral replication and accumulation of vvTD and vvTD-IL36γ” value [2] was “small inhibitory effect”. The “sensitivity of cancer cells to MRTX1257” value (H2122 cells) was “more sensitive than A549 cells”, the “sensitivity of cancer cells to MRTX1257” value (MC38 cells; MC38 (non-KRASG12C), 0.016 up to 7500 nM, 48 h) was “less sensitive” and the “drug-mediated cytotoxicity over time” value (MC38 cells; MC38, MRTX1257 at 100 nM, 24-72 h, versus LLC and AE17) was “much more resistant”. For the same compound, the “number of IFN-γ ELISpot spots” value [3] was ~180 spots, the “Median survival” value (MC38 s.c. tumor; MRTX1257 60 mg/kg) was 24 days and the “Median survival” value (MC38 s.c. tumor; MRTX1257 100 mg/kg) was 24 days. For the same compound, the “Median survival” value (MC38 s.c. tumor; MRTX1257 200 mg/kg) was 22 days, the “inhibition of tumor growth” value (MC38 s.c. tumor; MC38 tumor model, 60-200 mg/kg, FIG. 2C) was “no effect” and the “sensitivity of cancer cells to MRTX1257” value (AE17 cells) was “highly sensitive”.
